Source: PubChem BioAssay (NCI)
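How tested: cells in 96-well plates exposed to compound for 48 hours at five concentrations. GI50: concentration for 50% inhibition of growth. TGI: total growth inhibition.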

Experiments:
Experiment in all cases: growth of human tumour cells (NCI), 48 h
NCI-H460 lung = system: NCI-H460 lung
SK-MEL-5 melanoma = system: SK-MEL-5 melanoma
SF-295 CNS = system: SF-295 CNS
M14 melanoma = system: M14 melanoma
NCI-H522 lung = system: NCI-H522 lung
SF-539 CNS = system: SF-539 CNS
MCF7 breast = system: MCF7 breast
KM12 colon = system: KM12 colon
OVCAR-8 ovarian = system: OVCAR-8 ovarian
EKVX NSCLC = system: EKVX NSCLC

Structure (SMILES) | GI50 (NCI-H460 lung) [µM] | TGI (NCI-H460 lung) [µM] | GI50 (SK-MEL-5 melanoma) [µM] | TGI (SK-MEL-5 melanoma) [µM] | GI50 (SF-295 CNS) [µM] | TGI (SF-295 CNS) [µM] | GI50 (M14 melanoma) [µM] | TGI (M14 melanoma) [µM] | GI50 (NCI-H522 lung) [µM] | TGI (NCI-H522 lung) [µM] | GI50 (SF-539 CNS) [µM] | TGI (SF-539 CNS) [µM] | GI50 (MCF7 breast) [µM] | TGI (MCF7 breast) [µM] | GI50 (KM12 colon) [µM] | TGI (KM12 colon) [µM] | GI50 (OVCAR-8 ovarian) [µM] | TGI (OVCAR-8 ovarian) [µM] | GI50 (EKVX NSCLC) [µM] | TGI (EKVX NSCLC) [µM]
CCCCCCCCCCCCOC1C(CNC(=O)C2OC3OC(C)(C)OC3C2NC(=O)Nc2ccc(CC(=O)NC(Cc3ccccc3)C(=O)O)cc2)OC2OC(C)(C)OC21 (stereo not given) | > 25 | > 25 | > 25 | > 25 | > 25 | > 25 | > 25 | > 25 | > 25 | > 25 | > 25 | > 25 | > 25 | > 25 | > 25 | > 25 | > 25 | > 25 | > 25 | > 25
O=C(Nc1ccc(/C=C/c2ccc(NC(=O)c3cc(S(=O)(=O)O)c4cccnc4c3O)cc2S(=O)(=O)O)c(S(=O)(=O)O)c1)c1cc(S(=O)(=O)O)c2cccnc2c1O | 22.9 | > 76.9 | 50.2 | > 64.3 | 34.4 | > 76.8 | 7.18 | > 49 | 15.3 | 47 | 11.3 | > 54.9 | 38.5 | > 100 | 42.8 | > 67.7 | 9.66 | > 72.4 | > 50.9 | > 80.5
CC(=O)c1cc(C(=O)c2ccc3c(c2)Sc2ccccc2N3)c2cc(C)ccn12 | 0.0465 | > 100 | 0.122 | 5.56 | 0.036 | 4.15 | 0.0593 | > 100 | 0.0412 | > 100 | 0.0581 | 0.826 | 0.0345 | > 100 | 0.0425 | > 100 | 0.451 | > 100 | 0.0873 | > 100
Cc1ccc2c(c1)S(=O)(=O)c1ccc3ccccc3c1N2 |  | > 100 |  | > 100 |  | > 100 |  | > 100 |  | > 100 |  | > 100 |  | > 100 |  | > 100 |  | > 100 |  | > 100
NC(N)=N/N=C/c1ccc(-c2ccc(-c3cc(Cl)cc(Cl)c3)s2)cc1 | 1.7 | 3.46 | 2.79 | 7.85 | 1.84 | 3.47 | 1.75 | 3.53 | 1.85 | 4.45 | 1.65 | 3.1 | 1.1 | 3.07 | 1.87 | 3.56 | 2.48 | 6.34 | 1.84 | 4.03
O=c1ssc(Cl)c1Cl |  | > 10 |  | > 10 |  | > 10 |  | > 10 |  | > 6.78 |  | > 10 |  | > 10 |  | > 10 |  | > 10 |  | > 10
